Data taken from patent US11975073B2 (priority 2020, dated 2024).
Like-named read-outs stand apart in the source and are kept apart here.

Tests used:
[1] = male, Sprague-Dawley, rat, in vivo, po
[2] = Sprague-Dawley, rat, in vivo, 8.8 umol/kg
[3] = cynomolgus monkey, in vivo, po; for AUCinf, free allopregnanolone / AUCinf, total allopregnanolone / Cmax, free allopregnanolone / Cmax, total allopregnanolone: male, 8.8 umol/kg

Question: Which Tmax ([1]; 2 mg/kg) does the source give for CCCCCCCC/C=C\CCCCCCCC(=O)OCC(COC(=O)CCCCCCC/C=C\CCCCCCCC)OC(=O)CCCCCCC(=O)OCO[C@@H]1CC[C@@]2(C)[C@@H](CC[C@@H]3[C@@H]2CC[C@]2(C)[C@@H](C(C)=O)CC[C@@H]32)C1 [I-41] here?
Answer: Its Tmax is 1.7 h.

Question: With CCCCCCCC/C=C\CCCCCCCC(=O)OCC(COC(=O)CCCCCCC/C=C\CCCCCCCC)OC(=O)CCCCC(=O)OCO[C@@H]1CC[C@@]2(C)[C@@H](CC[C@@H]3[C@@H]2CC[C@]2(C)[C@@H](C(C)=O)CC[C@@H]32)C1 [I-40] as the molecule, how does the Tmax ([1]; 2 mg/kg) read?
Answer: The Tmax was 1.7 h.

Question: For CCCCCCCC(=O)OCC(COC(=O)CCCCCCC)OC(=O)CC(C)CC(=O)OCOC(=O)O[C@@H]1CC[C@@]2(C)[C@@H](CC[C@@H]3[C@@H]2CC[C@]2(C)[C@@H](C(C)=O)CC[C@@H]32)C1 (stereo partly drawn) [I-47, ALL-CASI-C5bMe-2-TG-octanoate], which “AUCinf, free allopregnanolone” value [2] is on record?
Answer: The value was 1.15 nM·h.

Question: What about the “AUCinf, total allopregnanolone” value [2] of the same molecule?
Answer: The value was 3.03 nM·h.

Question: And the “Cmax, free allopregnanolone” value [2]?
Answer: The value was 0.52 µM.

Question: What about the “Cmax, total allopregnanolone” value [2] of the same molecule?
Answer: Its value is 0.9 µM.

Question: What about the “Prodrug detectability in plasma samples after dose administration” value [3] of the same molecule?
Answer: The value was “detectable in plasma samples after dose administration at all time-points”.

Question: What about the “AUCinf, free allopregnanolone” value [3] of the same molecule?
Answer: Its value is 0.78 nM·h.

Question: What about the “AUCinf, total allopregnanolone” value [3] of the same molecule?
Answer: Its value is 7.4 nM·h.

Question: What about the “Cmax, free allopregnanolone” value [3] of the same molecule?
Answer: Its value is 0.12 µM.

Question: What about the “Cmax, total allopregnanolone” value [3] of the same molecule?
Answer: The value was 1.17 µM.

Question: Which results are given for CCCCCCCC/C=C\CCCCCCCC(=O)OCC(COC(=O)CCCCCCC/C=C\CCCCCCCC)OC(=O)CC(C)CC(=O)OCO[C@@H]1CC[C@@]2(C)[C@@H](CC[C@@H]3[C@@H]2CC[C@]2(C)[C@@H](C(C)=O)CC[C@@H]32)C1 (stereo partly drawn) [I-9]?
Answer: Cmax ([1]; 2 mg/kg): 0.126 µM; Mean Plasma AUC, 0-24 h ([1]; 2 mg/kg): 192.1 nM·h; Tmax ([1]; 2 mg/kg): 1.3 h

Question: For CCCCCCCC/C=C\CCCCCCCC(=O)OCC(COC(=O)CCCCCCC/C=C\CCCCCCCC)OC(=O)CCCCC(C)CC(=O)OCOC(=O)O[C@@H]1CC[C@@]2(C)[C@@H](CC[C@@H]3[C@@H]2CC[C@]2(C)[C@@H](C(C)=O)CC[C@@H]32)C1 (stereo partly drawn) [I-49, ALL-CASI-C8b′Me-2-TG-oleate], which Tmax ([1]; 2 mg/kg) is on record?
Answer: Its Tmax is 1.7 h.

Question: With CC(=O)OCC(COC(C)=O)OC(=O)CC(C)CC(=O)OC(C)OC(=O)O[C@@H]1CC[C@@]2(C)[C@@H](CC[C@@H]3[C@@H]2CC[C@]2(C)[C@@H](C(C)=O)CC[C@@H]32)C1 (stereo partly drawn) [I-38] as the molecule, how does the “Mean Plasma AUC, 0-24 h” value [1] read?
Answer: The value was 450 nM·h.

Question: What about the Tmax [1] of the same molecule?
Answer: Its Tmax is 1 h.

Question: For CCCCCCCC(=O)OCC(COC(=O)CCCCCCC)OC(=O)CC(C)CC(=O)OC(C)OC(=O)O[C@@H]1CC[C@@]2(C)[C@@H](CC[C@@H]3[C@@H]2CC[C@]2(C)[C@@H](C(C)=O)CC[C@@H]32)C1 (stereo partly drawn) [I-36, ALL-CMSI-C5bMe-2-TG-octanoate], which Cmax [1] is on record?
Answer: Its Cmax is 0.242 µM.

Question: And the Tmax [1]?
Answer: The Tmax was 1.2 h.

Question: What about the “AUCinf, free allopregnanolone” value [2] of the same molecule?
Answer: The value was 1.12 nM·h.

Question: What about the “AUCinf, total allopregnanolone” value [2] of the same molecule?
Answer: Its value is 3.86 nM·h.

Question: And the “Cmax, free allopregnanolone” value [2]?
Answer: Its value is 0.54 µM.

Question: What about the “Cmax, total allopregnanolone” value [2] of the same molecule?
Answer: Its value is 0.8 µM.

Question: And the “Prodrug detectability in plasma samples after dose administration” value [3]?
Answer: Its value is “detectable in plasma samples after dose administration at all time-points”.

Question: And the “AUCinf, free allopregnanolone” value [3]?
Answer: The value was 0.62 nM·h.

Question: And the “AUCinf, total allopregnanolone” value [3]?
Answer: Its value is 16.2 nM·h.

Question: What about the “Cmax, free allopregnanolone” value [3] of the same molecule?
Answer: Its value is 0.10 µM.

Question: And the “Cmax, total allopregnanolone” value [3]?
Answer: The value was 2.72 µM.

Question: With CCCC(=O)OCC(COC(=O)CCC)OC(=O)CC(C)CC(=O)OC(C)OC(=O)O[C@@H]1CC[C@@]2(C)[C@@H](CC[C@@H]3[C@@H]2CC[C@]2(C)[C@@H](C(C)=O)CC[C@@H]32)C1 (stereo partly drawn) [I-37] as the molecule, how does the Tmax [1] read?
Answer: The Tmax was 0.8 h.

Question: Which Tmax ([1]; 2 mg/kg) does the source give for CCCCCCCC/C=C\CCCCCCCC(=O)OCC(COC(=O)CCCCCCC/C=C\CCCCCCCC)OC(=O)CC(C)CCCCC(=O)OCO[C@@H]1CC[C@@]2(C)[C@@H](CC[C@@H]3[C@@H]2CC[C@]2(C)[C@@H](C(C)=O)CC[C@@H]32)C1 (stereo partly drawn) [I-42] here?
Answer: Its Tmax is 1.5 h.
